Reference: patent US20060281763A1, “Carboxamide inhibitors of TGFbeta” (priority 2005, published 2006)

Target: T1, TGFβ R1 (Homo sapiens, UniProt P36897)
T1 sequence (P36897 34-503): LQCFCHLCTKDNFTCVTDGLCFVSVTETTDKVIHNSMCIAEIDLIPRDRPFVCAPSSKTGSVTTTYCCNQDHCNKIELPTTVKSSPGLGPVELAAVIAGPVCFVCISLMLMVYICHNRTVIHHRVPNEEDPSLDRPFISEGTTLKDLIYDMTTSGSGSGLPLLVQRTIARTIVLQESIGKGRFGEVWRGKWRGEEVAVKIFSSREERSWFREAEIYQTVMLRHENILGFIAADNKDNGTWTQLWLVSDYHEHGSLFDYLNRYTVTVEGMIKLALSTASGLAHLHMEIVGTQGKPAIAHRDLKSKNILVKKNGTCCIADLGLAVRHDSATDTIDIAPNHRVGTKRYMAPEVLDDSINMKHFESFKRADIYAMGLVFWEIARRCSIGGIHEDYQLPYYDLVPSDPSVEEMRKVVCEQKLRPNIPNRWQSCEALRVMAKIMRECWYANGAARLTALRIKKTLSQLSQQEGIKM
Assay: TGFβ R1 autophosphorylation protocol (33P-ATP, phosphocellulose filter plate)
Type: biochemical
Conditions: 10 uM ATP, 170 nM TGFβ R1, 20 minutes at room temperature, read-out: IC50 for Kinase Inhibition
Protocol: The compounds of the invention were tested for their ability to inhibit TGFβ by a TGFβ R^1 autophosphorylation protocol. This was conducted as follows: Compound dilutions and reagents were prepared fresh daily. Compounds were diluted from DMSO stock solutions to 2 times the desired assay concentration, keeping final DMSO concentration in the assay less than or equal to 1%. TGFβ R1 was diluted to 4 times the desired assay concentration in buffer+DTT. ATP was diluted into 4× reaction buffer, and gamma-^33P-ATP was added at 60 uCi/mL.
The assay was performed by adding 10 ul of the enzyme to 20 ul of the compound solution. The reaction was initiated by the addition of 10 ul of ATP mix. Final assay conditions included 10 uM ATP, 170 nM TGFβ R1, and […] in 20 mM MOPS, pH7. The reactions were incubated at room temperature for 20 minutes. The reactions were stopped by transferring 23 ul of reaction mixture onto a phosphocellulose 96-well filter plate, which had been pre-wetted with 15 ul of 0.25M H3PO4 per well. After 5 minutes, the wells were washed 4× with 75 mM H3PO4 and once with 95% ethanol. The plate was dried, scintillation cocktail was added to each well, and the wells were counted in a Packard TopCount microplate scintillation counter.

Compound	IC50
NC(=O)c1cnccc1Nc1nc(-c2cc(Cl)ccc2F)ncc1I [Compound 78, 4-[2-(5-Chloro-2-fluoro-phenyl)-5-iodo-pyrimidin-4-ylamino]-nicotinamide]	10 nM
COc1ccc(NC(=O)NCCNC(=O)c2cnccc2Nc2nc(-c3cc(Cl)ccc3F)ncc2OC)cc1 [Compound 79, 4-[2-(5-Chloro-2-fluoro-phenyl)-5-methoxy-pyrimidin-4-ylamino]-N-{2-[3-(4-methoxy-phenyl)-ureido]-ethyl}-nicotinamide]	350 nM
COc1cnc(-c2cc(Cl)ccc2F)nc1Nc1ccncc1C(=O)NCCNC(=O)NC(C)C [Compound 80, 4-[2-(5-Chloro-2-fluoro-phenyl)-5-methoxy-pyrimidin-4-ylamino]-N-[2-(3-isopropyl-ureido)-ethyl]-nicotinamide]	570 nM
COc1cnc(-c2cc(Cl)ccc2F)nc1Nc1ccncc1C(=O)NCCCN1CCCC1C(=O)N(C)C (stereo not drawn) [Compound 81, 4-[2-(5-Chloro-2-fluoro-phenyl)-5-methoxy-pyrimidin-4-ylamino]-N-[3-(2-dimethylcarbamoyl-pyrrolidin-1-yl)-propyl]-nicotinamide]	120 nM
COc1cnc(-c2cc(Cl)ccc2F)nc1Nc1ccncc1C(=O)NC1CCN(C(=O)OC(C)(C)C)C1 (stereo not drawn) [Compound 82, 3-((4-[2-(5-Chloro-2-fluoro-phenyl)-5-methoxy-pyrimidin-4-ylamino]-pyridine-3-carbonyl)-amino)-pyrrolidine-1-carboxylic acid tert-butyl ester]	310 nM
CC(C)c1cnc(-c2cc(Cl)ccc2F)nc1Nc1ccncc1C(=O)N[C@H]1CCC[C@@H]1O [Compound 83, 4-[2-(5-Chloro-2-fluoro-phenyl)-5-isopropyl-pyrimidin-4-ylamino)-N-(2-hydroxy-cyclopentyl)-nicotinamide]	230 nM
CC(C)c1cnc(-c2cc(Cl)ccc2F)nc1Nc1ccncc1C(=O)N[C@H](CO)[C@@H](C)O [Compound 84, 4-[2-(5-Chloro-2-fluoro-phenyl)-5-isopropyl-pyrimidin-4-ylamino]-N-(2-hydroxy-1-hydroxymethyl-propyl)-nicotinamide]	1730 nM
CC(C)c1cnc(-c2cc(Cl)ccc2F)nc1Nc1ccncc1C(=O)N[C@H](C(N)=O)[C@@H](C)O [Compound 85, N-(1-Carbamoyl-2-hydroxy-propyl)-4-[2-(5-chloro-2-fluoro-phenyl)-5-isopropyl-pyrimidin-4-ylamino]-nicotinamide]	3960 nM
COc1cnc(-c2cc(Cl)ccc2F)nc1Nc1ccncc1C(=O)NC1CN(C(=O)OC(C)(C)C)C1 [Compound 86, 3-({4-[2-(5-Chloro-2-fluoro-phenyl)-5-methoxy-pyrimidin-4-ylamino]-pyridine-3-carbonyl}-amino)-azetidine-1-carboxylic acid tert-butyl ester]	310 nM
COc1cnc(-c2cc(Cl)ccc2F)nc1Nc1ccncc1C(=O)NC1CNC1 [Compound 87, N-Azetidin-3-yl-4-[2-(5-chloro-2-fluoro-phenyl)-5-methoxy-pyrimidin-4-ylamino]-nicotinamide]	50 nM
COC(=O)[C@H]1C[C@@H](NC(=O)c2cnccc2Nc2nc(-c3cc(Cl)ccc3F)ncc2OC)CN1C(=O)OC(C)(C)C [Compound 88, 4-({4-[2-(5-Chloro-2-fluoro-phenyl)-5-methoxy-pyrimidin-4-ylamino]-pyridine-3-carbonyl}-amino)-pyrrolidine-1,2-dicarboxylic acid 1-tert-butyl ester 2-methyl ester]	14100 nM
COC(=O)[C@H]1C[C@@H](NC(=O)c2cnccc2Nc2nc(-c3cc(Cl)ccc3F)ncc2OC)CN1 [Compound 89, 4-({4-[2-(5-Chloro-2-fluoro-phenyl)-5-methoxy-pyrimidin-4-ylamino]-pyridine-3-carbonyl}-amino)-pyrrolidine-2-carboxylic acid methyl ester]	190 nM
NC(=O)c1cnccc1Nc1nc(-c2cc(Cl)ccc2F)ncc1Cl [Compound 91, 4-[5-Chloro-2-(5-chloro-2-fluoro-phenyl)-pyrimidin-4-ylamino]-nicotinamide]	200 nM
O=C(NC1CC1)c1cnccc1Nc1nc(-c2cc(Cl)ccc2F)ncc1Cl [Compound 92, 4-[5-Chloro-2-(5-chloro-2-fluoro-phenyl)-pyrimidin-4-ylamino]-N-cyclopropyl-nicotinamide]	130 nM
CNC(=O)c1cnccc1Nc1nc(-c2cc(Cl)ccc2F)ncc1Br [Compound 93, 4-[5-Bromo-2-(5-chloro-2-fluoro-phenyl)-pyrimidin-4-ylamino]-N-methyl-nicotinamide]	30 nM
COc1cnc(-c2cc(Cl)ccc2F)nc1Nc1ccncc1C(=O)NCCCNCCC1O[C@H](COC(C)=O)[C@@H](OC(C)=O)[C@H](OC(C)=O)[C@H]1OC(C)=O (stereo partly drawn) [Compound 97, Acetic acid 3,4,5-triacetoxy-6-{2-[3-({4-[2-(5-chloro-2-fluoro-phenyl)-5-methoxy-pyrimidin-4-ylamino]-pyridine-3-carbonyl}-amino)-propylamino]-ethyl}-tetrahydro-pyran-2-ylmethyl ester]	90 nM

The next lines start with the values.

IC50	Compound
1340 nM	COc1cnc(-c2cc(Cl)ccc2F)nc1Nc1ccncc1C(=O)NCCCNC(C)=O [Compound 94, N-(3-Acetylamino-propyl)-4-[2-(5-chloro-2-fluoro-phenyl)-5-methoxy-pyrimidin-4-ylamino]-nicotinamide]
170 nM	COc1cnc(-c2cc(Cl)ccc2F)nc1Nc1ccncc1C(=O)NCCCNC(=O)C(C)C [Compound 95, 4-[2-(5-Chloro-2-fluoro-phenyl)-5-methoxy-pyrimidin-4-ylamino]-N-(3-isobutylylamino-propyl)-nicotinamide]
70 nM	COC[C@H]1OC(CCNCCCNC(=O)c2cnccc2Nc2nc(-c3cc(Cl)ccc3F)ncc2OC)[C@@H](OC)[C@@H](OC)[C@@H]1OC (stereo partly drawn) [Compound 96, 4-[2-(5-Chloro-2-fluoro-phenyl)-5-methoxy-pyrimidin-4-ylamino]-N-(3-[2-(3,4,5-trimethoxy-6-methoxymethyl-tetrahydro-pyran-2-yl)-ethylamino]-propyl)-nicotinamide]
610 nM	COc1cnc(-c2cc(Cl)ccc2F)nc1Nc1ccncc1C(=O)NCCCNCCC1O[C@H](COCc2ccccc2)[C@@H](OCc2ccccc2)[C@H](OCc2ccccc2)[C@H]1OCc1ccccc1 (stereo partly drawn) [Compound 99, 4-[2-(5-Chloro-2-fluoro-phenyl)-5-methoxy-pyrimidin-4-ylamino]-N-{3-[2-(3,4,5-tris-benzyloxy-6-benzyloxymethyl-tetrahydro-pyran-2-yl)-ethylamino]-propyl}-nicotinamide]
30 nM	COc1cnc(-c2cc(Cl)ccc2F)nc1Nc1ccncc1C(=O)NCCCN [Compound 100, N-(3-Amino-propyl)-4-[2-(5-chloro-2-fluoro-phenyl)-5-methoxy-pyrimidin-4-ylamino]-nicotinamide]
140 nM	COc1cnc(-c2cc(Cl)ccc2F)nc1Nc1ccncc1C(=O)NCCCNCC(F)(F)C(F)(F)F [Compound 101, 4-[2-(5-Chloro-2-fluoro-phenyl)-5-methoxy-pyrimidin-4-ylamino]-N-[3-(2,2,3,3,3-pentafluoro-propylamino)-propyl]-nicotinamide]
70 nM	COc1cnc(-c2cc(Cl)ccc2F)nc1Nc1ccncc1C(=O)NCCNCC(F)(F)C(F)(F)F [Compound 102, 4-[2-(5-Chloro-2-fluoro-phenyl)-5-methoxy-pyrimidin-4-ylamino]-N-[2-(2,2,3,3,3-pentafluoro-propylamino)-ethyl]-nicotinamide]
130 nM	COc1cnc(-c2cc(Cl)ccc2F)nc1Nc1ccncc1C(=O)NCCNCC(F)(F)F [Compound 103, 4-[2-(5-Chloro-2-fluoro-phenyl)-5-methoxy-pyrimidin-4-ylamino]-N-[2-(2,2,2-trifluoro-ethylamino)-ethyl]-nicotinamide]
310 nM	COc1cnc(-c2cc(Cl)ccc2F)nc1Nc1ccncc1C(=O)NCCOCCO [Compound 104, 4-[2-(5-Chloro-2-fluoro-phenyl)-5-methoxy-pyrimidin-4-ylamino]-N-[2-(2-hydroxy-ethoxy)-ethyl]-nicotinamide]
240 nM	COc1cnc(-c2cc(Cl)ccc2F)nc1Nc1ccncc1C(=O)NCC1CN(C(=O)OC(C)(C)C)C1 [Compound 105]
4810 nM	COc1cnc(-c2cc(Cl)ccc2F)nc1Nc1ccncc1C(=O)N[C@@H]1C[C@H](C(=O)N(C)C)N(C(=O)OC(C)(C)C)C1 [Compound 106, 4-({4-[2-(5-Chloro-2-fluoro-phenyl)-5-methoxy-pyrimidin-4-ylamino]-pyridine-3-carbonyl}-amino)-2-dimethyl carbamoyl-pyrrolidine-1-carboxylic acid tert-butyl ester]
